In patent publication US10314909B2, “Combination therapy comprising an MMP-14 binding protein” (DYAX CORP., priority 2011, dated 2019):

Legend:
Assay type in all cases: in vivo
[1] = system: A375 human melanoma xenograft; test: subcutaneous A375 human melanoma xenograft model, tumor size; settings: BALB/c nude mice, s.c. A375, DX-2400 20 mg/kg i.v. Q3D X6; for tumor volume: darcabazine 150 mg/kg i.p. Day 1, 4/wk x 3, compared to untreated mice (FIG. 1); for tumor growth rate: darcabazine 150 mg/kg i.p., compared to untreated mice
Procedure: The in vivo therapeutic efficacy of DX-2400 as a single agent or in combination with darcabazine was determined using a subcutaneous A375 human melanoma xenograft model.
(§1) A375 tumor cells were maintained in vitro as a monolayer culture in DMEM medium, supplemented with 10% heat inactivated fetal bovine serum, 100 U/ml penicillin and 100 μg/ml streptomycin, and L-glutamine (2 mM) at 37° C. in an atmosphere of 5% CO2 in air. The tumor cells were routinely subcultured twice weekly by trypsin-EDTA treatment. The cells growing in an exponential growth phase were harvested and counted for tumor inoculation.
(§2) 55 BALB/c nude, female, 6-8 weeks, weighing approximately 18-22 were purchased from Shanghai Laboratory Animal Center SLAC (Shanghai, China) for use in the study (40 mice+˜40% spare). Each mouse was inoculated subcutaneously at the right flank with A375 tumor cells (5×10^6) in 0.1 ml of PBS for tumor development. The treatments were started when the mean tumor size reached approximately 150˜200 mm^3. Each group consisted of 10 mice.
(§3) The major endpoint is to see if the tumor growth can be delayed or tumor bearing mice can be cured. Tumor sizes were measured twice weekly in two dimensions using a caliper, and the volume was expressed in mm^3 using the formula: V=0.5 a×b^2 where a and b are the long and short diameters of the tumor, respectively. The tumor sizes were then used for the calculations of both T-C and T/C values. T-C is calculated with T as the time (in days) required for the mean tumor size of the treatment group to reach a predetermined size (e.g., 1000 mm^3), and C is the time (in days) for the mean tumor size of the control group to reach the same size. The T/C value (in percent) is an indication of antitumor effectiveness, T and C are the mean volume of the treated and control groups, respectively, on a given day.

[2] = system: primary human pancreatic cancer PAM527 xenograft; test: subcutaneous primary human pancreatic cancer PAM527 xenograft model in nude mice, tumor size; settings: BALB/c nude mice, s.c. PAM527 tumor fragment; DX-2400 20 mg/kg i.v. Q3d x 6; gemcitabine 60 mg/kg i.p. Q4d x 4; compared to untreated mice (FIG. 3A)
Procedure: The in vivo anti-tumor activity of DX-2400 as a single agent or in combination with gemcitabine was evaluated in the treatment of subcutaneous primary human pancreatic cancer using a PAM527 xenograft model in nude mice.
75 BALB/c nude mice, female, 6-8 weeks, weighing approximately 18-24 g were purchased from SLAC, Shanghai, P. R. China (40 mice+˜90% spare). Tumor fragments from seed mice inoculated with selected primary human pancreatic cancer tissues (PAM527) were harvested and used for inoculation into BALB/c nude mice. Each mouse was inoculated subcutaneously at the right flank with one tumor fragment (2-3 mm in diameter) for tumor development. The treatments were started when the mean tumor size reached approximately 150 mm^3. Each group consisted of 10 mice.
as §3, with “The tumor sizes were then used for the calculations of both T-C and T/C values.” left out, “The T/C value (in percent) is an indication of antitumor effectiveness, T and C are the mean volume of the treated and control groups, respectively, on a given day.” left out

[3] = system: Panc-1 human pancreas cancer xenograft; test: subcutaneous Panc-1 human pancreas cancer xenograft model, tumor size; settings: BALB/c nude mice, s.c. Panc-1; DX-2400 20 mg/kg i.v. Q3D X6; gemcitabine 50 mg/kg i.p. Q3D X4; compared to untreated mice (FIG. 4A)
Procedure: The in vivo therapeutic efficacy of DX-2400 as a single agent or in combination with gemcitabine was evaluated in the treatment of a subcutaneous Panc-1 human pancreas cancer xenograft model.
as §1, with “Panc-1 tumor cells” for “A375 tumor cells”, “tumor cells will be routinely subcultured” for “tumor cells were routinely subcultured”, “growth phase will be harvested and” for “growth phase were harvested and”
A total of 56 (40 plus 40% spare) BALB/c nude, female, 6-8 weeks, weighing approximately 18-22 g were purchased from Shanghai Laboratory Animal Center SLAC (Shanghai, China) for use in the study. […]
as §3, with “The tumor sizes were then used for the calculations of both T-C and T/C values.” left out, “The T/C value (in percent) is an indication of antitumor effectiveness, T and C are the mean volume of the treated and control groups, respectively, on a given day.” left out

[4] = system: SK-MEL-5 human melanoma xenograft; test: subcutaneous SK-MEL-5 human melanoma xenograft model, tumor size; settings: BALB/c nude mice, s.c. SK-MEL-5, DX-2400 20 mg/kg i.v. Q3D X6, paclitaxel 8 mg/kg i.p. Q4D X6; for tumor growth rate: compared to untreated mice; for tumor volume: compared to untreated mice (FIG. 2)
Procedure: The in vivo therapeutic efficacy of DX-2400 as a single agent or in combination with Paclitaxel in the treatment of human melanoma was evaluated using a subcutaneous SK-MEL-5 human melanoma xenograft model.
SK-MEL-5 human melanoma cells were grown in EMEM medium, supplemented with 10% heat inactivated fetal bovine serum, 100 U/ml penicillin and 100 μg/ml streptomycin at 37° C. in an atmosphere of 5% CO2 in air. The tumor cells were routinely subcultured twice weekly. Cells were harvested during the logarithmic growth period and resuspended in physical PBS with proper cell concentration and kept on ice for tumor induction.
as §2, with “18-22 g (40 mice+˜40% spare) were used for the study. Animals” for “18-22”, “China, Shanghai).” for “China) for use in the study (40 mice+˜40% spare).”, “SK-MEL-5” for “A375”
as §3

| Molecule | tumor volume [1] | tumor growth rate [1] | mean tumor size [2] | mean tumor size [3] | tumor growth rate [4] | tumor volume [4] |
| --- | --- | --- | --- | --- | --- | --- |
| CN(C)/N=N/c1[nH]cnc1C(N)=O [darcabazine, dacarbazine] | reduced tumor volume | caused a reduction in tumor growth rate | – | – | – | – |
| Nc1ccn([C@@H]2O[C@H](CO)[C@@H](O)C2(F)F)c(=O)n1 [gemcitabine] | – | – | reduced the tumor size | reduced the tumor size | – | – |
| CC(=O)O[C@H]1C(=O)[C@@]2(C)[C@H]([C@H](OC(=O)c3ccccc3)[C@]3(O)C[C@H](OC(=O)[C@H](O)[C@@H](NC(=O)c4ccccc4)c4ccccc4)C(C)=C1C3(C)C)[C@]1(OC(C)=O)CO[C@@H]1C[C@@H]2O [paclitaxel] | – | – | – | – | caused a reduction in tumor growth rate | reduced tumor volume |
| DX-2400: human anti-MMP-14 antibody, light and heavy chains of M0038-F01; VH SEQ ID NO: 51, VL SEQ ID NO: 52 (antibody, listed as Homo sapiens, V domains shown) VH: EVQLLESGGGLVQPGGSLRLSCAASGFTFSLYSMNWVRQAPGKGLEWVSSIYSSGGSTLYADSVKGRFTISRDNSKNTLYLQMNSLRAEDTAVYYCARGRAFDIWGQGTMVTVSS VL: DIQMTQSPSSLSASVGDRVTITCRASQSVGTYLNWYQQKPGKAPKLLIYATSNLRSGVPSRFSGSGSGTDFTLTISSLQPEDFATYYCQQSYSIPRFTFGPGTKVDIK | reduced tumor volume | caused a reduction in the tumor growth rate | reduced the mean tumor size | reduced the mean tumor size | caused a reduction in the tumor growth rate | reduced tumor volume |
